Type in all cases: cell-based
One assay has as its system Vero cells. Put plainly: MTT cytotoxicity assay, Vero cells. The following applies: 72 h, Mean ± S.D. (n = 3). As to the method:
(§1) The anti-proliferative effect on cancer cells was evaluated by MTT (3-(4,5-dimethylthiazol-2-yl)-2,5-diphenyltetrazolium bromide) assay. Cells (8 × 10^3 cell/well) were seeded onto 96-well plates and incubated for 24 h to allow adherence. After 24 h, the cells were exposed to increasing concentrations (3.12, 6.25, 12.5, 25, 50, and 100 μg/mL) of pure metabolites in a mixture of DMSO and ethanol (1:1) for 72 h. Control groups were treated with a mixture of DMSO and ethanol (1:1). After the indicated time, the medium was replaced with 110 μL of fresh medium containing MTT (0.5 mg/mL in PBS) (Sigma Chemical Co., St Louis, MO, USA) and incubated for 2 h. The formazan formed after conversion of MTT was dissolved in DMSO. The absorbance of formazan was measured with a microplate reader (Bio-Rad Laboratories, Hercules, CA, USA) at the wavelength of 550 nm with a reference wavelength of 655 nm. The percentage of viable cells which corresponds to the production of formazan was calculated using the following formula [19]. %cell viability = [Sample (A550 - […])/Control (A550 - […])] × 100(1)
(Tetrazolium assays rely on reduction of a dye to a coloured formazan, in cell work by metabolically active cells.)

The subject of assay [1] is Bacillus cereus ATCC 11778. Put plainly: Antibacterial assay (CLSI), B. cereus. Also noted: key to MIC, Bacillus cereus ATCC 11778: inactive: Inactive at >128 μg/mL. To be noted: Inactive at >128 μg/mL; for MIC: Bacillus cereus, ATCC11778. On the procedure:
(§2) Five microorganism cultures (Methicillin resistant S. aureus DMST 20654, S. aureus ATCC 25923, S. sonnei ATCC 11060, B. subtilis ATCC 6633, and B. cereus ATCC 11778) were used. The experiments were performed at the Department of Microbiology, Faculty of Science, Khon Kaen University, Thailand. The antibacterial assay was performed as recommended by the Clinical and Laboratory Standards Institute. The standard drugs kanamycin and chloramphenicol were used as positive controls.

In assay [2] the test system is Bacillus subtilis ATCC 6633. Nature of the assay: Antibacterial assay (CLSI), B. subtilis. Also noted: key to MIC, Bacillus subtilis ATCC 6633: inactive: Inactive at >128 μg/mL. To be noted: Inactive at >128 μg/mL; for MIC: Bacillus subtilis, ATCC6633. As to the method:
as §2

For assay [3], the system named is A549 human lung carcinoma cell line. Put plainly: MTT anti-proliferative assay, A549. To be noted: Mean ± S.D. (n = 3). On the procedure:
as §1

Assay [4] has as its system Staphylococcus aureus ATCC 25923. Put plainly: Antibacterial assay (CLSI), S. aureus. Also noted: key to MIC, Staphylococcus aureus ATCC 25923: inactive: Inactive at >128 μg/mL. The following applies: Inactive at >128 μg/mL; for MIC: Staphylococcus aureus, ATCC25923. As to the method:
as §2

Assay [5] concerns HeLa human cervical cancer. Put plainly: MTT anti-proliferative assay, HeLa. The following applies: 72 h, Mean ± S.D. (n = 3). As to the method: as §1
The subject of assay [6] is HCT-116 human colon cancer. Nature of the assay: MTT anti-proliferative assay, HCT-116. The following applies: Mean ± S.D. (n = 3). As to the method: as §1
In assay [7] the test system is Methicillin Resistant Staphylococcus aureus DMST 20654. Nature of the assay: Antibacterial assay (CLSI), MRSA. The following applies: Inactive at >128 μg/mL; for MIC: Staphylococcus aureus. Also noted: key to MIC, Methicillin Resistant Staphylococcus aureus DMST 20654: inactive: Inactive at >128 μg/mL. On the procedure:
as §2

The test system of another assay is HT29 human colon cancer. Nature of the assay: MTT anti-proliferative assay, HT29. To be noted: Mean ± S.D. (n = 3). As to the method: as §1

Eleven compounds from paper PMC8708503, “Scalarane Sesterterpenoids with Antibacterial and Anti-Proliferative Activities from the Mushroom Neonothopanus nambi” (Molecules, 2021) can be followed below.

Converted amounts (≈) assume the structure as drawn. A value given as a limit tells only on which side of the number the result lay.

For the compound `CC(=CC(=O)OC1CC2(C)c3cocc3CCC2C2(C)CC(O)C3C(C)(C)CCCC3(C)C12)CC(=O)O` (centres unmarked) [Compound 4, Nambiscalarane E], the IC50 was more than 100 µM in the assay with Vero cells (Chlorocebus sabaeus, Vero); 22.9 ± 1.99 µM in [3] (Homo sapiens, A549, 72 h); 23.7 ± 0.51 µM in assay [5] (Homo sapiens, HeLa); 13.4 ± 0.39 µM in [6] (Homo sapiens, HCT-116, 72 h); 19.6 ± 2.32 µM with HT29 human colon cancer (Homo sapiens, HT-29, 72 h). For the same compound, the “MIC, Bacillus cereus ATCC 11778” value in assay [1] was “inactive”. Also, the “MIC, Bacillus subtilis ATCC 6633” value in assay [2] is “inactive”. Also, in assay [4], it took 128 µg/mL (≈ 250 µM) to inhibit growth (MIC). For the same compound, the “MIC, Methicillin Resistant Staphylococcus aureus DMST 20654” value in assay [7] was “inactive”.

With `CC(=O)O[C@H]1C[C@]2(C)[C@H]([C@H](OC(=O)/C=C(\C)CC(=O)O)C[C@]3(C)c4cocc4CC[C@@H]23)[C@@]2(C)CCCC(C)(C)[C@H]12` [Compound 8, Nambiscalarane], the IC50 in the assay on Vero cells (Chlorocebus sabaeus, Vero) is more than 100 µM; in assay [3] (Homo sapiens, A549, 72 h) it was 27.5 ± 0.32 µM; in [5] (Homo sapiens, HeLa), 26.6 ± 2.58 µM; in assay [6] (Homo sapiens, HCT-116, 72 h), 24.4 ± 2.06 µM; with HT29 human colon cancer (Homo sapiens, HT-29, 72 h), 20.4 ± 2.07 µM. For the same compound, the MIC in assay [1] is 16 µg/mL (≈ 28.8 µM); in assay [2] it was 8 µg/mL (≈ 14.4 µM); in assay [4], 16 µg/mL (≈ 28.8 µM); in assay [7], 128 µg/mL (≈ 231 µM). Further, in assay [2], the “MIC, Bacillus subtilis ATCC 6633” value amounted to 8 µg/mL (≈ 14.4 µM).

On to `N.N.[Cl][Pt][Cl]` [cis-platin, reference compound], for which the IC50 in the assay on Vero cells was more than 100 µM; in assay [3] (72 h), 16.86 ± 0.03 µM; in assay [5] it was 6.43 ± 0.13 µM; in [6] (72 h), 4.93 ± 0.77 µM; in the assay on HT29 human colon cancer (72 h) it was 5.3 ± 0.23 µM.

On to `CC(=O)OC1CC2(C)C3CCc4cocc4C3(C)CC(OC(=O)CC(=O)O)C2C2(C)CCCC(C)(C)C12` (centres unmarked) [Compound 2, Nambiscalarane C], for which the IC50 was more than 100 µM with Vero cells (Chlorocebus sabaeus, Vero); 85 ± 10.2 µM in assay [3] (Homo sapiens, A549, 72 h); 73.2 ± 5.37 µM in [5] (Homo sapiens, HeLa); 14.3 ± 0.56 µM in [6] (Homo sapiens, HCT-116, 72 h); 33 ± 1.63 µM with HT29 human colon cancer (Homo sapiens, HT-29, 72 h). Further, the MIC in [1] amounted to 32 µg/mL (≈ 62.2 µM); in assay [2] it was 32 µg/mL (≈ 62.2 µM); in [4] it was 128 µg/mL (≈ 249 µM); in [7], 128 µg/mL (≈ 249 µM).

Turning to `CC(=O)OC1CC2(C)C3CCC4=C(C(O)OC4=O)C3(C)CC(OC(=O)C=C(C)CC(=O)O)C2C2(C)CCCC(C)(C)C12` (centres unmarked) [Compound 7, Nambiscalarane H], the “IC50, Vero Cells” value in the assay with Vero cells is on record as “no cytotoxicity”. Moreover, the IC50 was more than 100 µM in the assay with Vero cells (Chlorocebus sabaeus, Vero); more than 100 µM in assay [3] (Homo sapiens, A549, 72 h); more than 100 µM in [5] (Homo sapiens, HeLa); more than 100 µM in [6] (Homo sapiens, HCT-116, 72 h); more than 100 µM in the assay with HT29 human colon cancer (Homo sapiens, HT-29, 72 h). In addition, the MIC in assay [1] and in assay [2] was 64 µg/mL (≈ 109 µM) throughout. Also, the “MIC, Staphylococcus aureus ATCC 25923” value in [4] is “inactive”. Moreover, the “MIC, Methicillin Resistant Staphylococcus aureus DMST 20654” value in assay [7] was “inactive”.

Regarding `CC(=O)OC1CC2(C)C3CCc4cocc4C3(C)CC(OC(=O)CC(C)=CC(=O)O)C2C2(C)CCCC(C)(C)C12` (centres unmarked) [Compound 3, Nambiscalarane D], in the assay on Vero cells, the “IC50, Vero Cells” value is “no cytotoxicity”. The IC50 is 70.2 ± 8.23 µM in the assay with Vero cells (Chlorocebus sabaeus, Vero); 25 ± 1.59 µM in [3] (Homo sapiens, A549, 72 h); 21.1 ± 1.66 µM in assay [5] (Homo sapiens, HeLa); 21.4 ± 1.14 µM in [6] (Homo sapiens, HCT-116, 72 h); 20.8 ± 0.63 µM in the assay with HT29 human colon cancer (Homo sapiens, HT-29, 72 h). For the same compound, the MIC in [1] is 32 µg/mL (≈ 57.7 µM); in [2] it was 16 µg/mL (≈ 28.8 µM). In addition, the “MIC, Staphylococcus aureus ATCC 25923” value in [4] is “inactive”. Further, the “MIC, Methicillin Resistant Staphylococcus aureus DMST 20654” value in assay [7] was “inactive”.

For the compound `CC(=O)OC1CC2(C)C3CCC4=C(COC4=O)C3(C)CC(OC(=O)C=C(C)CC(=O)O)C2C2(C)CCCC(C)(C)C12` (centres unmarked) [Compound 5, Nambiscalarane F], in the assay with Vero cells, the “IC50, Vero Cells” value is recorded as “no cytotoxicity”. Moreover, the half-inhibitory concentration (IC50) with Vero cells (Chlorocebus sabaeus, Vero) was more than 100 µM; in [3] (Homo sapiens, A549, 72 h), 99.14 ± 0.36 µM; in assay [5] (Homo sapiens, HeLa), 72.9 ± 5.23 µM; in assay [6] (Homo sapiens, HCT-116, 72 h), 32.7 ± 2.37 µM; in the assay on HT29 human colon cancer (Homo sapiens, HT-29, 72 h) it was 54.5 ± 5.93 µM. The minimal inhibitory concentration (MIC) in [1] was 128 µg/mL (≈ 224 µM); in [2], 128 µg/mL (≈ 224 µM); in [4], 16 µg/mL (≈ 28 µM). Moreover, the “MIC, Methicillin Resistant Staphylococcus aureus DMST 20654” value in [7] is “inactive”.

Regarding `NC[C@H]1O[C@H](O[C@H]2[C@H](O)[C@@H](O[C@H]3O[C@H](CO)[C@@H](O)[C@H](N)[C@H]3O)[C@H](N)C[C@@H]2N)[C@H](O)[C@@H](O)[C@@H]1O` [Kanamycin, reference compound], the “MIC, Bacillus cereus ATCC 11778” value in [1] stood at 16 µg/mL (≈ 33 µM). Also, the “MIC, Bacillus subtilis ATCC 6633” value in assay [2] turned out to be 8 µg/mL (≈ 16.5 µM). Moreover, in assay [4], the “MIC, Staphylococcus aureus ATCC 25923” value was 2 µg/mL (≈ 4.13 µM). For the same compound, the “MIC, Methicillin Resistant Staphylococcus aureus DMST 20654” value in assay [7] amounted to 4 µg/mL (≈ 8.26 µM).

As for `O=C(N[C@H](CO)[C@H](O)c1ccc([N+](=O)[O-])cc1)C(Cl)Cl` [Chloramphenicol, reference compound], the MIC turned out to be 4 µg/mL (≈ 12.4 µM) in assay [1], 4 µg/mL (≈ 12.4 µM) in assay [2], 8 µg/mL (≈ 24.8 µM) in assay [4] and 8 µg/mL (≈ 24.8 µM) in assay [7].

On to `CC(=O)OC1CC2(C)C3CCC4=C(COC4=O)C3(C)CC(OC(=O)CC(C)=CC(=O)O)C2C2(C)CCCC(C)(C)C12` (centres unmarked) [Compound 6, Nambiscalarane G], for which the IC50 in the assay with Vero cells (Chlorocebus sabaeus, Vero) is more than 100 µM; in [3] (Homo sapiens, A549, 72 h), more than 100 µM; in assay [5] (Homo sapiens, HeLa), 45.9 ± 2.77 µM; in [6] (Homo sapiens, HCT-116, 72 h) it was 16.5 ± 2.79 µM; with HT29 human colon cancer (Homo sapiens, HT-29, 72 h), 78.2 ± 4.28 µM. The MIC in assay [1] is 128 µg/mL (≈ 224 µM); in assay [4] it was 64 µg/mL (≈ 112 µM). Also, the “MIC, Bacillus subtilis ATCC 6633” value in [2] is “inactive”. Further, the “MIC, Methicillin Resistant Staphylococcus aureus DMST 20654” value in assay [7] was “inactive”.

Regarding `CC1(C)CCCC2(C)C1C(O)CC1(C)C3CCc4cocc4C3(C)CCC21` (centres unmarked) [Compound 1, Nambiscalarane B], the 50% inhibitory concentration (IC50) with Vero cells (Chlorocebus sabaeus, Vero) was more than 100 µM; in assay [3] (Homo sapiens, A549, 72 h), 24.3 ± 7.56 µM; in assay [5] (Homo sapiens, HeLa), 40.8 ± 0.73 µM; in assay [6] (Homo sapiens, HCT-116, 72 h), 20.3 ± 3.13 µM; in the assay on HT29 human colon cancer (Homo sapiens, HT-29, 72 h) it was 22.71 ± 0.16 µM. Further, the “MIC, Bacillus cereus ATCC 11778” value in assay [1] was “inactive”. Moreover, the “MIC, Bacillus subtilis ATCC 6633” value in assay [2] was “inactive”. Besides, the MIC in assay [4] worked out at 128 µg/mL (≈ 345 µM). The “MIC, Methicillin Resistant Staphylococcus aureus DMST 20654” value in assay [7] is “inactive”.

Broadly, the IC50 is the point on the concentration scale where inhibition reaches its midpoint. As usually defined, the MIC is the lowest concentration found to suppress growth.
